Data as given in article PMC12693701, “Glucosinolate-Derived Metabolites from Barbarea vulgaris (Brassicaceae): Evaluation of Antimicrobial, Antioxidant, and Anti-Inflammatory Potentials” (Molecules, 2025).
Converted amounts (≈) assume the structure as drawn.

What was measured:
C. albicans ATCC 10231 = experiment: Microdilution MIC/MMC with resazurin; type: cell-based, Candida albicans; conditions: C. albicans ATCC 10231, reference antibiotics/antimycotic; for MIC: Candida albicans, ATCC10231, read-out: MIC
Protocol: (§1) The antimicrobial activity was evaluated against 15 microorganisms. This included 11 bacterial strains: four standard strains (Staphylococcus aureus ATCC 25923, Bacillus subtilis ATCC 6633, Bacillus pumilus NCTC 8241, and Escherichia coli ATCC 25922) and six clinical or environmental isolates (Staphylococcus aureus, Escherichia coli, Bacillus cereus, Proteus mirabilis, Salmonella enterica, and Klebsiella pneumoniae). One probiotic strain, Bifidobacterium animalis subsp. lactis was tested. In addition, four fungal strains, Candida albicans ATCC 10231, Trichoderma viride ATCC 13233, Aspergillus flavus ATCC 9170, and Fusarium solani ATCC 11712 were tested. The bacterial strains were kept in glycerol stock at −80 °C and the fungal strains in paraffin oil stock at 4 °C.
(§2) Bacterial and yeast suspensions were prepared using the direct colony method, as previously described by Andrews. The turbidity of the initial suspensions was adjusted to match the 0.5 McFarland standard using a densitometer (Biosan, Riga, Latvia), corresponding to approximately 10^8 colony-forming units (CFU)/mL for bacterial cells and 10^6 CFU/mL for yeast cells. Subsequently, 1:100 dilutions of the initial suspensions were prepared in sterile 0.85% saline. Fungal spore suspensions were obtained by gently harvesting spores from agar slopes containing mature mycelial growth. The collected spore suspensions were then diluted 1:1000 in sterile 0.85% saline prior to use.
(§3) Antimicrobial activity was evaluated by determining the minimum inhibitory concentration (MIC) and minimum microbicidal concentration (MMC) using the microdilution plate method with resazurin as an indicator [28]. In the 96-well plates, 100 μL of Mueller–Hinton broth (Torlak, Belgrade, Serbia) for bacterial testing and Sabouraud broth (Torlak, Belgrade, Serbia) for fungal testing were dispensed into each well. The compounds under investigation were initially dissolved in a 10% dimethyl sulfoxide (DMSO) solution, followed by dilution in sterile distilled water, resulting in a working compound solution containing 1% DMSO. A 100 μL aliquot of the stock solution of the tested compound was added to the first row, and twofold serial dilutions were then carried out using a multichannel pipette. The resulting concentration range was from 5 to 0.039 mg/mL. The inoculated microtiter plates were incubated at 37 °C for 24 h for bacteria, at 28 °C for 48 h for yeasts, and at 28 °C for 72 h for molds.
(§4) Each test also included growth control and sterility control. All tests were conducted in duplicate. MIC was defined as the lowest concentration of tested compounds that prevented resazurin color change from blue to pink. For molds, MIC values of the tested compound were determined as the lowest concentration that inhibited visible mycelia growth. MMC was determined by inoculation of the nutrient agar medium by plating […] of samples from wells, where no indicator color change was recorded. At the end of the incubation period, the lowest concentration with no growth (no colony) was defined as MMC.
(§5) Doxycycline, ampicillin and amphotericin B (- Sigma-Aldrich, St. Louis, MO, USA) and ketoconazole (Hemofarm A.D., Vršac, Serbia) were dissolved in a nutrient liquid medium. Doxycycline is a broad-spectrum antibiotic effective against both aerobic and anaerobic Gram-positive and Gram-negative bacteria. Ampicillin, a beta-lactam antibiotic, primarily targets Gram-positive bacteria but also some Gram-negative strains. Amphotericin B is an antifungal drug often used for serious systemic fungal infections and is one of the effective treatments for fungal infections caused by Aspergillus sp. Ketoconazole is an antifungal agent used to inhibit the growth of Candida species.

T. viride ATCC 13233 = experiment: Microdilution MIC/MMC; type: cell-based, Trichoderma viride; conditions: T. viride ATCC 13233, reference antibiotics/antimycotic; for MIC: Trichoderma viride, ATCC13233, read-out: MIC
Protocol: as §1, §2, §3, §4, §5

A. flavus ATCC 9170 = experiment: Microdilution MIC/MMC; type: cell-based, Aspergillus flavus; conditions: A. flavus ATCC 9170, reference antibiotics/antimycotic; for MIC: Aspergillus flavus, ATCC9170, read-out: MIC
Protocol: as §1, §2, §3, §4, §5

F. solani ATCC 11712 = experiment: Microdilution MIC/MMC; type: cell-based, Fusarium solani; conditions: F. solani ATCC 11712, reference antibiotics/antimycotic
Protocol: as §1, §2, §3, §4, §5

[1] = ABTS radical scavenging assay; conditions: mean ± SD
Protocol: The ABTS radical cation solution was prepared following the previously described protocol. Different concentrations of the analyzed samples were prepared in DMSO. The test samples were prepared following the specified procedure: 20 µL of sample was combined with 980 µL of methanol, followed by the addition of 1000 µL of ABTS solution. Absorbance was measured at 734 nm. All measurements were performed in triplicate.

B. subtilis ATCC 6633 = experiment: Microdilution MIC/MMC with resazurin; type: cell-based, Bacillus subtilis; conditions: B. subtilis ATCC 6633, reference antibiotics/antimycotic; for MIC: Bacillus subtilis, ATCC6633, read-out: MIC
Protocol: as §1, §2, §3, §4, §5

B. cereus = experiment: Microdilution MIC/MMC with resazurin; type: cell-based, Bacillus cereus; conditions: B. cereus, reference antibiotics/antimycotic; for MIC: Bacillus cereus, read-out: MIC
Protocol: as §1, §2, §3, §4, §5

B. pumilus NCTC 8241 = experiment: Microdilution MIC/MMC with resazurin; type: cell-based, Bacillus pumilus; conditions: B. pumilus NCTC 8241, reference antibiotics/antimycotic
Protocol: as §1, §2, §3, §4, §5

[2] = system: B. animalis subsp. lactis; experiment: Microdilution MIC/MMC with resazurin; type: cell-based, Bifidobacterium animalis subsp. lactis; conditions: B. animalis subsp. lactis, reference antibiotics/antimycotic; for MIC: Bifidobacterium animalis, read-out: MIC
Protocol: as §1, §2, §3, §4, §5

S. aureus ATCC 25923 = experiment: Microdilution MIC/MMC with resazurin; type: cell-based, Staphylococcus aureus; conditions: S. aureus ATCC 25923, reference antibiotics/antimycotic; for MIC: Staphylococcus aureus, ATCC25923, read-out: MIC
Protocol: as §1, §2, §3, §4, §5

S. aureus = experiment: Microdilution MIC/MMC with resazurin; type: cell-based, Staphylococcus aureus; conditions: S. aureus isolate, reference antibiotics/antimycotic; for MIC: Staphylococcus aureus, read-out: MIC
Protocol: as §1, §2, §3, §4, §5

E. coli ATCC 25922 = experiment: Microdilution MIC/MMC with resazurin; type: cell-based, Escherichia coli; conditions: E. coli ATCC 25922, reference antibiotics/antimycotic; for MIC: Escherichia coli, ATCC25922, read-out: MIC
Protocol: as §1, §2, §3, §4, §5

E. coli = experiment: Microdilution MIC/MMC with resazurin; type: cell-based, Escherichia coli; conditions: E. coli isolate, reference antibiotics/antimycotic; for MIC: Escherichia coli, read-out: MIC
Protocol: as §1, §2, §3, §4, §5

P. mirabilis = experiment: Microdilution MIC/MMC with resazurin; type: cell-based, Proteus mirabilis; conditions: P. mirabilis, reference antibiotics/antimycotic; for MIC: Proteus mirabilis, read-out: MIC
Protocol: as §1, §2, §3, §4, §5

S. enterica = experiment: Microdilution MIC/MMC with resazurin; type: cell-based, Salmonella enterica; conditions: reference antibiotics/antimycotic; for MIC: Salmonella enterica
Protocol: as §1, §2, §3, §4, §5

K. pneumoniae = experiment: Microdilution MIC/MMC with resazurin; type: cell-based, Klebsiella pneumoniae; conditions: K. pneumoniae, reference antibiotics/antimycotic; for MIC: Klebsiella pneumoniae, read-out: MIC
Protocol: as §1, §2, §3, §4, §5

MIC (C. albicans ATCC 10231) [µg/mL] | MIC (T. viride ATCC 13233) [µg/mL] | MIC (A. flavus ATCC 9170) [µg/mL] | Compound | MMC (C. albicans ATCC 10231) [µg/mL] | MMC (T. viride ATCC 13233) [µg/mL] | MMC (A. flavus ATCC 9170) [µg/mL] | MMC (B. subtilis ATCC 6633) [µg/mL] | MIC (B. subtilis ATCC 6633) [µg/mL] | MMC (B. cereus) [µg/mL] | MIC (B. cereus) [µg/mL] | MMC [2] [µg/mL] | MIC [2] [µg/mL] | MMC (S. aureus ATCC 25923) [µg/mL] | MIC (S. aureus ATCC 25923) [µg/mL] | MMC (S. aureus) [µg/mL] | MIC (S. aureus) [µg/mL] | MMC (E. coli ATCC 25922) [µg/mL] | MIC (E. coli ATCC 25922) [µg/mL] | MMC (E. coli) [µg/mL] | MIC (E. coli) [µg/mL] | further results
1.96 (≈ 3.69 µM) | 62.5 (≈ 118 µM) | < 0.49 | CC(=O)N1CCN(c2ccc(OCC3COC(Cn4ccnc4)(c4ccc(Cl)cc4Cl)O3)cc2)CC1 (stereo not shown) [Ketoconazole, reference compound] | 1.96 | 125 | 1.96 | – | – | – | – | – | – | – | – | – | – | – | – | – | – | MMC (F. solani ATCC 11712): 0.156 µg/mL; MIC (F. solani ATCC 11712; Fusarium solani, ATCC11712, read-out: MIC): 0.08 µg/mL (≈ 0.151 µM)
– | – | – | Cc1c(C)c2c(c(C)c1O)CCC(C)(C(=O)O)O2 (stereo not shown) [Trolox, reference compound] | – | – | – | – | – | – | – | – | – | – | – | – | – | – | – | – | – | ABTS Scavenging Ability ([1]; 25 µM): 97.5 ± 0.2%; ABTS Scavenging Ability ([1]; 50 µM): 99.3 ± 0.1%; ABTS Scavenging Ability ([1]; 100 µM): 99.5 ± 0.3%
– | – | – | CC1(C)S[C@@H]2[C@H](NC(=O)[C@H](N)c3ccccc3)C(=O)N2[C@H]1C(=O)O [Ampicillin, reference compound] | – | – | – | 4 | 3 (≈ 8.59 µM) | 6 | 4 (≈ 11.4 µM) | 0.12 | < 0.06 | 0.75 | 0.25 (≈ 0.715 µM) | <0.06 | < 0.06 | 0.5 | 0.37 (≈ 1.06 µM) | 2.1 | 1.2 (≈ 3.43 µM) | MMC (B. pumilus NCTC 8241): 12 µg/mL; MIC (B. pumilus NCTC 8241; Bacillus pumilus, NCTC8241, read-out: MIC): 8 µg/mL (≈ 22.9 µM); MMC (P. mirabilis): >128 µg/mL; MIC (P. mirabilis): > 128 µg/mL; MIC (S. enterica): 1 µg/mL (≈ 2.86 µM); MMC (S. enterica): 1 µg/mL; MMC (K. pneumoniae): >128 µg/mL; MIC (K. pneumoniae): > 128 µg/mL
< 0.098 | 0.78 (≈ 0.844 µM) | 0.39 (≈ 0.422 µM) | C[C@@H]1[C@H](O)[C@@H](C)/C=C/C=C/C=C/C=C/C=C/C=C/C=C/[C@H](O[C@@H]2O[C@H](C)[C@@H](O)[C@H](N)[C@@H]2O)C[C@@H]2O[C@](O)(C[C@@H](O)C[C@@H](O)[C@H](O)CC[C@@H](O)C[C@@H](O)CC(=O)O[C@H]1C)C[C@H](O)[C@H]2C(=O)O [Amphotericin B, reference compound] | <0.098 | 1.56 | 0.78 | – | – | – | – | – | – | – | – | – | – | – | – | – | – | –
– | – | – | C[C@H]1c2cccc(O)c2C(=O)C2=C(O)[C@]3(O)C(=O)C(C(N)=O)=C(O)[C@@H](N(C)C)[C@@H]3[C@@H](O)[C@@H]21 [Doxycycline, reference compound] | – | – | – | 31.25 | 1.95 (≈ 4.39 µM) | 7.81 | 0.977 (≈ 2.2 µM) | 8 | 4 (≈ 9 µM) | 3.75 | 0.224 (≈ 0.504 µM) | 7.81 | 0.45 (≈ 1.01 µM) | 31.25 | 15.6 (≈ 35.2 µM) | 62.5 | 15.6 (≈ 35.2 µM) | MMC (P. mirabilis): 62.5 µg/mL; MIC (P. mirabilis): 15.6 µg/mL (≈ 35.2 µM); MIC (S. enterica): 15.6 µg/mL (≈ 35.2 µM); MMC (K. pneumoniae): 32 µg/mL; MIC (K. pneumoniae): 2 µg/mL (≈ 4.5 µM)
